This assay addresses T1, fibroblast activation protein (FAP) (Homo sapiens, UniProt Q12884).
T1 sequence (Q12884 1-760): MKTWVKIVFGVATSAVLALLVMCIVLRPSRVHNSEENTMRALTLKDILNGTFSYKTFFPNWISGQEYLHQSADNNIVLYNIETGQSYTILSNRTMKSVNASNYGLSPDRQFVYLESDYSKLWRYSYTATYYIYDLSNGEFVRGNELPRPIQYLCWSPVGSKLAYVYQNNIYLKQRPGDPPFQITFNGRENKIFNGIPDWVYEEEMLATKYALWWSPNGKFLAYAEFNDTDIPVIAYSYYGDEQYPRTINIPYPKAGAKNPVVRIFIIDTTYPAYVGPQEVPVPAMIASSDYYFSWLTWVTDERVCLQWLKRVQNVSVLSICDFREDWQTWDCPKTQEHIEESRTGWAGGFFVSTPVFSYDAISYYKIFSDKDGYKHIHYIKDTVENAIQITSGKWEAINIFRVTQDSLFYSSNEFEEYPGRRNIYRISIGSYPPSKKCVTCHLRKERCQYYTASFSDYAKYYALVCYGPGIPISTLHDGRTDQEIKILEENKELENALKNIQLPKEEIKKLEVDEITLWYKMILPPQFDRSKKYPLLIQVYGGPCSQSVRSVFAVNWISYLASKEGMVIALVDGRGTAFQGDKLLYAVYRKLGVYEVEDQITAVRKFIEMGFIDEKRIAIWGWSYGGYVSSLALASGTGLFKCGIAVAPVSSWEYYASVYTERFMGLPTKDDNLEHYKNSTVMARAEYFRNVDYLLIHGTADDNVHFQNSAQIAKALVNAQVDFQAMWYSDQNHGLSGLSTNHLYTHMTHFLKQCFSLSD
The experiment in a line: unlabelled competitor ([…] concentrations) displacing […]-iFAP from HCT116 cells. Type of assay: cell-based.

Broadly, the IC50 is the concentration needed to halve the response being measured. A high value points to a need for much substance.

In the case of `C[C@H](NC(=O)c1ccc(NNC(=S)Nc2ccc(CC3CN(CC(=O)O)CCN(CC(=O)O)CCN(CC(=O)O)CCN3CC(=O)O)cc2)nc1)C(=O)N1CCC[C@@H]1B(O)O` (stereo partly drawn) [DOTA-iFAP, 2,2′,2″,2‴-(2-(4-(2-(5-(((S)-1-((S)-2-boronopyrrolidin-1-yl)-1-oxopropan-2-yl)carbamoyl)pyridin-2-yl)hydrazine-1-carbothioamido)benzyl)-1,4,7,10-tetraazacyclododecane-1,4,7,10-tetrayl)tetraacetic acid], the IC50 came to 0.57 nM.

The record behind these values is article PMC11054143, “^68Ga-DOTA-D-Alanine-BoroPro Radiotracer for Imaging of the Fibroblast Activation Protein in Malignant and Non-Malignant Diseases” (Pharmaceutics, 2024).
